Laboratory results from ChEMBL document CHEMBL2434887, “Synthesis and biological evaluation of a new series of N-ylides as protein farnesyltransferase inhibitors” (Bioorg Med Chem Lett, 2013).

Columns and labels:
[1] = target: T1, Protein farnesyltransferase (Homo sapiens, UniProt P49354+P49356); assay: Inhibition of recombinant human farnesyltransferase using Dansyl-GCVLS as substrate measured for 15 mins by fluorimetric analysis; type: protein-complex assay
[2] = target: T1, Protein farnesyltransferase; assay: Inhibition of recombinant human farnesyltransferase using Dansyl-GCVLS as substrate at 100 uM measured for 15 mins by fluorimetric analysis relative to control; type: protein-complex assay

CN(C)c1cc[n+]([C-](C=C(C#N)C#N)C(=O)c2ccc(Br)cc2)cc1
IC50 [1]: 19.7 µM
inhibition [2]: 91%

Cc1cc[n+]([C-](C=C(C#N)C#N)C(=O)c2ccccc2)cc1
inhibition [2]: 29%

CCOC(=O)/C(C#N)=C/[C-](C(=O)c1ccc(OC)cc1)[n+]1cc(C)cc(C)c1
inhibition [2]: 49%

CCOC(=O)/C(C#N)=C/[C-](C(=O)c1ccc2c(c1)NC(=O)CO2)[n+]1ccc(N(C)C)cc1
IC50 [1]: 55.2 µM
inhibition [2]: 62%

CN(C)c1cc[n+]([C-](C=C(C#N)C#N)C(=O)c2ccc3c(c2)NC(=O)CO3)cc1
IC50 [1]: 25.8 µM
inhibition [2]: 92%

CCOC(=O)/C(C#N)=C/[C-](C(=O)c1ccc(C#N)cc1)[n+]1ccc(N(C)C)cc1
IC50 [1]: 46.2 µM
inhibition [2]: 69%

COc1ccc(C(=O)[C-](C=C(C#N)C#N)[n+]2ccc(OC)cc2)cc1
IC50 [1]: 27.3 µM
inhibition [2]: 83%

COc1ccc(C(=O)[C-](C=C(C#N)C#N)[n+]2ccc(N(C)C)cc2)cc1
IC50 [1]: 22.2 µM
inhibition [2]: 99%

CCOC(=O)/C(C#N)=C/[C-](C(=O)c1ccc(Cl)cc1)[n+]1ccc(N(C)C)cc1
IC50 [1]: 31.9 µM
inhibition [2]: 100%

CN(C)c1cc[n+]([C-](C=C(C#N)C#N)C(=O)c2ccc(F)cc2)cc1
IC50 [1]: 23.6 µM
inhibition [2]: 81%

CCOC(=O)/C(C#N)=C/[C-](C(=O)c1cc(OC)c(OC)c(OC)c1)[n+]1cc(C)cc(C)c1
IC50 [1]: 43.5 µM
inhibition [2]: 90%

CCOC(=O)/C(C#N)=C/[C-](C(=O)c1ccccc1)[n+]1ccc(N(C)C)cc1
IC50 [1]: 30.9 µM
inhibition [2]: 68%

CCOC(=O)/C(C#N)=C/[C-](C(=O)c1cc(OC)c(OC)c(OC)c1)[n+]1ccc(N(C)C)cc1
IC50 [1]: 48 µM
inhibition [2]: 73%

CN(C)c1cc[n+]([C-](C=C(C#N)C#N)C(=O)c2ccc([N+](=O)[O-])cc2)cc1
IC50 [1]: 28.2 µM
inhibition [2]: 88%

CCOC(=O)/C(C#N)=C/[C-](C(=O)c1ccc(F)cc1)[n+]1ccc(N(C)C)cc1
IC50 [1]: 62.3 µM
inhibition [2]: 64%

CN(C)c1cc[n+]([C-](C=C(C#N)C#N)C(=O)N2c3ccccc3Sc3ccccc32)cc1
IC50 [1]: 4.67 µM

CN(C)c1cc[n+]([C-](C=C(C#N)C#N)C(=O)c2ccc(Cl)cc2)cc1
IC50 [1]: 12.5 µM
inhibition [2]: 95%

COc1ccc(C(=O)[C-](C=C(C#N)C#N)[n+]2cc(C)cc(C)c2)cc1
IC50 [1]: 27.4 µM
inhibition [2]: 75%

CCOC(=O)/C(C#N)=C/[C-](C(=O)c1ccccc1)[n+]1ccc(C)cc1
inhibition [2]: 45%

COc1cc(C(=O)[C-](C=C(C#N)C#N)[n+]2cc(C)cc(C)c2)cc(OC)c1OC
IC50 [1]: 20.1 µM
inhibition [2]: 82%

Cc1ccc(C(=O)[C-](C=C(C#N)C#N)[n+]2ccc(N(C)C)cc2)cc1
IC50 [1]: 14.5 µM
inhibition [2]: 89%

CCOC(=O)/C(C#N)=C/[C-](C(=O)c1ccc(OC)cc1)[n+]1ccc(OC)cc1
inhibition [2]: 51%

CCOC(=O)/C(C#N)=C/[C-](C(=O)c1ccc(OC)c(OC)c1)[n+]1ccc(OC)cc1
IC50 [1]: 20.8 µM
inhibition [2]: 88%

COc1cc[n+]([C-](C=C(C#N)C#N)C(=O)c2ccc(OC)c(OC)c2)cc1
IC50 [1]: 31.4 µM
inhibition [2]: 77%

CN(C)c1cc[n+]([C-](C=C(C#N)C#N)C(=O)c2ccccc2)cc1
IC50 [1]: 46.2 µM
inhibition [2]: 79%

CN(C)c1cc[n+]([C-](C=C(C#N)C#N)C(=O)c2ccc(C#N)cc2)cc1
IC50 [1]: 23.9 µM
inhibition [2]: 77%

CCOC(=O)/C(C#N)=C/[C-](C(=O)c1ccc(Br)cc1)[n+]1ccc(N(C)C)cc1
IC50 [1]: 36.4 µM
inhibition [2]: 100%

COc1cc(C(=O)[C-](C=C(C#N)C#N)[n+]2ccc(N(C)C)cc2)cc(OC)c1OC
IC50 [1]: 15.6 µM
inhibition [2]: 93%

CCOC(=O)/C(C#N)=C/[C-](C(=O)c1ccc(OC)cc1)[n+]1ccc(N(C)C)cc1
IC50 [1]: 62.7 µM
inhibition [2]: 64%

CCOC(=O)/C(C#N)=C/[C-](C(=O)c1ccc(C)cc1)[n+]1ccc(N(C)C)cc1
IC50 [1]: 43.6 µM
inhibition [2]: 65%
